# Experimental data: patent US6770738B1, “Higher order structure and binding of peptide nucleic acids” (ISIS Pharmaceuticals, Inc., priority 1992, dated 2004)
# Columns and labels:
# [1] = test system: A4GA2GA2 target (pA8G2KS/T3, pT8C2KS/T7 RNA polymerase); test: Transcription elongation arrest using T3 or T7 RNA polymerase, mixed A/G PNA targets; assay type: biochemical; details: compared to Example 22
# Procedure: The complex between the desired PNA and the desired DNA (100 ng) cleaved with the desired restriction enzyme was formed by incubation in 14 μL 10 mM Tris-HCl, 1 mM EDTA, (pH 7.4) buffer for 60 min at 37° C. Subsequently 4 μL 5× concentrated polymerase buffer (0.2 M Tris-HCl, pH 8.0, 125 mM NaCl, 40 mM MgCl2 10 mM spermidine) was added together with 15 U of RNA polymerase and ATP (10 μM), CTP (10 mM), UTP (1 mM) and ^32P-UTP (0.1 μCi). The incubation was continued for 10 min. Following ethanol precipitation, the RNA was analyzed by electrophoresis in polyacrylamide sequencing gels, and radialabeled RNA bands were visualized by autoradiography (using Agfa Curix RPI X-ray films and intensifying screens). Quantitation was performed by densitometric scanning using a Molecular Dynamics laser scanner and the ImageQuant™ software.
# Samples identical to those used for Example 20 were analyzed by electrophoresis in a polyacrylamide sequencing gel. The results are shown in FIG. 23 where, Lanes 1-4: pA10KS/T3 RNA polymerase; lanes 5-8: pT10KS/T7 RNA polymerase; lanes 9-12: pA8G2KS/T3 RNA polymerase lanes 13-16: pT8C2KST7 RNA polymerase. The plasmid used in the samples of lanes 1-3 was cleaved with Xbal, that in lanes 6-8 with Pst1, that in lanes 9-11 with BamH1 and that in lanes 14-16 with HindIII. Lanes 1, 8, 9 & 16 are controls without PNA. […]
# [2] = test system: pT9CT9C plasmid linearized by CfrlOI; test: Site-specific S1 nuclease digestion of plasmid with two PNA sites complexed with PNA; assay type: biochemical; details: 30 units S1 nuclease; target sites are for T5CT4
# Excerpt: was cloned into the Sal1 site of the pUC19 plasmid. This plasmid, which contained two binding sites for PNA H-T5CT4-LysNH2 (SEQ ID NO:6) separated by six base pairs, was designated pT9CT9C. Strand displacement in the two T5CT4 sites led to opening of the entire region, including the sequence GTCGAC/GACGAC, providing a substrate for the S1 nuclease in both strands. As control, a pT9C-5 plasmid was used, which carried only one T5CT4 (SEQ ID NO:6) insert cloned into the SalI site of the pUC19 plasmid.
# cloned in the Sal1 site of the pUC19 polylinker. The pT9C-5 plasmid carried the single insert A5GA4/CT5 (SEQ ID NO:4) cloned in the same site. The PNA-DNA complexes were prepared as described in Example 2 with the only difference being the duration of the incubation was 2 hours. Digestion by 30 units of the S1 nuclease was performed in the same buffer as described in Example 2 with two exceptions, lanes 2 and 4. In lane 2, 15 units of the enzyme were used, whereas in lane 4 200 mM NaCl and 1 mM of ZnSO4 were added to the buffer. Lane 1: the reference band obtained by digestion with the BamHI restriction enzyme of the pUC 19 plasmid linearized by the CfrlOI restriction enzyme. Lanes 2-4 site-specific digestion by the S1 nuclease of the linearized pT9C plasmid complexed with PNA H-T5CT4-LysNH2 (SEQ ID NO:6). Lanes 5-7: various controls. Lane 8: the same experiment as in lane 3, but using PNA T10 (SEQ ID NO:2) instead of T4CT5 (SEQ ID NO:8). Lane 9: the same experiment as in lane 3, but using PNA T2CT2CT4 (SEQ ID NO:1) instead of T4CT5 (SEQ ID NO:8). Lane 10: the same experiment as in lane 3, but using the pT9C-5 plasmid instead of the pT9C. In the header PNA T5CT4 (SEQ ID NO:6) is labelled as 1, T10 (SEQ ID NO:2) as 2 and T2CT2CT4 (SEQ ID NO:1) as 3.
# The bands observed by gel electrophoresis have the same position and width as the band created by the BamHI restriction enzyme. […] Moreover, under the much milder S1 nuclease treatment necessary to generate the data for the pT9CT9C, the yield of double-stranded breaks in the pT9C-5 plasmid was extremely low (lane 10).
# [3] = test system: 264 bp EcorI/PvuII fragment of pT8C2A8G2; test: KMnO4 and DMS probing of PNA binding to double-stranded DNA; details: pH 7.5, 5 μM PNA, compared to pH 6.5 and 5.5
# Procedure: Probing was effected in 100μ buffer (S1: 100 mM NaCl, 1 mM ZnSO4, 50 mM NaAc, pH 4.5; KMnO4/dimethyl sulphate (DMS): 10 mM Na-cacodylate, 1 mM EDTA, pH 7.0 or as other wise noted) containing about 200 cps ^32P-labeled DNA fragment, 0.5 μg calf thymus DNA and the desired amount of PNA. Following a preincubation for 60 min at 37° C., the probing reagent was added and the incubation was continued at room temperature. The reactions were terminated by the addition of a stop-buffer. The DNA was precipitated by addition of 200 μL. 2% KAc in 96% EtOH and was analyzed by electrophoresis in 10% polyacrylamide sequencing gels. Radioactive DNA bands were visualized by autoradiography using amplifying screens and Agfa curix RPA X-ray films exposed at −70° C.
# Probing conditions were: S1: 0.5 U/μl, 5 min. stopped with 3 μl 1 M EDTA; KMnO4: 1 mM, 15 sec. stopped with 50 μl 1M […], 1.5 M NaAc, pH 7.0; DMS: 1% DMS, 15 sec., stopped as for KMnO4 probing. Samples probed with DMS or KMnO4 were treated with piperidine (0.5 M, 90° C., 20 min.) prior to gel analysis.
# For this example the 264 bp EcorI/PvuII fragment of pT8C2A8G2 was used that was 3′-^32P-end-labeled at the EcorI sit. Probing was effected as per the protocols of Example 12. The results are shown in FIG. 12 where in lanes 1 & 9 are controls without PNA. Lanes 1-7 are KMnO4 probing while lanes 9-15 are DMS probing. […]
# [4] = test system: RNA target 5′-TAGTTGTGACGTACA-3; test: Equilibrium and rate constants for duplexes with RNA (gel-shift); assay type: binding; details: [Na+] 0.1 M, 37 ° C.; 100 mM NaCl, 10 mM phosphate, 1 mM EDTA, pH 7.0; gel-shift with 32P-labeled RNA
# complementary RNA [5] = test: Melting temperature of complexes with complementary RNA; assay type: binding; details: 100 mM NaCl, 10 mM Na-phosphate, 0.1 mM EDTA, pH 7; 4 μM of each strand
# Procedure: (§1) The thermal stability measured as the melting temperature, Tm, of complexes between the pentadecamer, H-TGTACGTCACAACTA-NH2 (SEQ ID NO:10) and the complementary deoxyoligonucleotide 3′-ACATGCAGTGTTGAT (SEQ ID NO:47) (termed anti-parallel orientation: amino terminal of the PNA complementary to the 3′-end of the oligonucleotide) was 69.5° C. (see Table II), whereas the Tm of the corresponding PNA-DNA complex in parallel orientation was 56.1° C. The Tm for the PNA-RNA complexes was 72.3 and 51.2° C., respectively (see Table II). The orientation preference was further settled by using two decamer PNAs, and hybridizing these to complementary oligonucleotides in both orientations. The anti-parallel orientation was preferred in all cases (see Table II). Furthermore, it is noteworthy that virtually identical Tms were obtained regardless of which strand is the PNA and which is the DNA (see Table II, 2nd & 3rd row).
# [6] = test system: complementary deoxyoligonucleotide; test: Melting temperature of complexes with complementary DNA; assay type: binding; details: 100 mM NaCl, 10 mM Na-phosphate, 0.1 mM EDTA, pH 7; 4 μM of each strand
# Procedure: as §1
# complementary DNA = test: Thermodynamics of duplex formation with DNA; assay type: binding
# Procedure: (§2) Thermodynamics parameters for hybridization can be extracted from thermal stability measurements when these are performed at varying concentrations of the complexes, or from the shape of the thermal denaturation curves. Both methods were used to determine ΔH°, ΔS° and ΔG° for formation of the PNA/RNA, DNA/RNA, PNA/DNA and DNA/DNA duplexes (Table III). It is remarkable that the decrease in entropy is almost identical for the formation of DNA/DNA and PNA/DNA duplexes and that both reactions are strongly enthalpy driven.
# complementary RNA [7] = test: Thermodynamics of duplex formation with RNA; assay type: binding
# Procedure: as §2
# 5′d(AAAAGGAGAG) = test: Melting temperature of complex with decamer; assay type: binding; details: pH 7
# Procedure: (§3) The dimer prepared in Example 53 was incorporated into PNA H-TT(detT-idaT)CCTCTC-LysNH2 (SEQ ID NO:53) generally in accordance with Example 1. The melting temperatures, Tm, of complexes between this PNA and decamers 5′d(AAAAGGAGAG) (SEQ ID NO:54) and 5′d(GAGAGGAAAA) (SEQ ID NO:55) were 55° C. and 43.5° C., respectively, at pH 7. By comparison, the Tm of complexes between PNA H-TTTCCTCTC-LysNH2 (SEQ ID NO:56), prepared generally in accordance with Example 1, and these decamers was 58.5° C. and 40.5° C., respectively, at pH 7.
# 5′d(GAGAGGAAAA) = test: Melting temperature of complex with decamer; assay type: binding; details: pH 7
# Procedure: as §3
# [8] = 8 μM, average of the two methods
# [9] = 8 μM, fit to modified two state model
# [10] = 8 μM, linear plots of 1/TM versus log (concentration)
# [11] = fit to modified two state model
# [12] = fit to modified two state model, 100 mM NaCl, 10 mM Na-phosphate, 0.1 mM EDTA, pH 7.0
# [13] = linear plots of 1/TM versus log (concentration)
substance,measurement,setting,value
H-T4CT2CT2LysNH2 [PNA H-T4CT2CT2LysNH2],transcription arrest efficiency,[1],much less efficient
H-T2CT2CT4LysNH2 [PNA H-T2CT2CT4-LysNH2],S1 nuclease digestion of pT9CT9C plasmid complexed with PNA,[2],very weak digestion
same,strand displacement binding (KMnO4 and DMS probing),[3],Very little binding
"DNA TGTACGTCACAACTA: DNA oligonucleotide 5′-TGTACGTCACAACTA-3′ as first strand of reference duplexes (DNA, backbone and methylation of C not given here) [reference compound]",Kd,[4],2 nM
same,"Melting temperature Tm, DNA:RNA",complementary RNA [5],50.6 °C
same,"Melting temperature Tm, DNA:DNA",[6],53.3 °C
same,TM (average of the two methods),complementary DNA; [8],53.5 °C
same,TM (melting curve fit),complementary DNA; [9],53.6 °C
same,TM (1/TM versus log concentration),complementary DNA; [10],53.5 °C
same,ΔG°37 (average of the two methods),complementary DNA; average of the two methods,-54.8 kJ/mol
same,ΔH° (average of the two methods),complementary DNA; average of the two methods,-412 kJ/mol
same,ΔS° (average of the two methods),complementary DNA; average of the two methods,−275.1 eu
same,ΔG°3 (melting curve fit),complementary DNA; [11],−12.7
same,ΔS° (melting curve fit),complementary DNA; [11],−253.9 eu
same,ΔH° (melting curve fit),complementary DNA; [12],-383 kJ/mol
same,ΔG°37 (1/TM versus log concentration),complementary DNA; [13],−13.4 kcal/mol
same,ΔH° (1/TM versus log concentration),complementary DNA; [13],−105.3 kcal/mol
same,ΔS° (1/TM versus log concentration),complementary DNA; [13],−296.2 eu
same,TM (average of the two methods),complementary RNA [7]; [8],50.0 °C
same,TM (melting curve fit),complementary RNA [7]; [9],49.8 °C
same,TM (1/TM versus log concentration),complementary RNA [7]; [10],50.1 °C
same,ΔG°37 (average of the two methods),complementary RNA [7]; average of the two methods,-52.7 kJ/mol
same,ΔH° (average of the two methods),complementary RNA [7]; average of the two methods,-466.5 kJ/mol
same,ΔS° (average of the two methods),complementary RNA [7]; average of the two methods,−318.9 eu
same,ΔG°3 (melting curve fit),complementary RNA [7]; [11],−11.8
same,ΔS° (melting curve fit),complementary RNA [7]; [11],−264.9 eu
same,ΔH° (melting curve fit),complementary RNA [7]; [12],-393 kJ/mol
same,ΔG°37 (1/TM versus log concentration),complementary RNA [7]; [13],−13.3 kcal/mol
same,ΔH° (1/TM versus log concentration),complementary RNA [7]; [13],−128.9 kcal/mol
same,ΔS° (1/TM versus log concentration),complementary RNA [7]; [13],−372.8 eu
H-TT(detT-idaT)CCTCTC-LysNH2 [PNA H-TT(detT-idaT)CCTCTC-LysNH2],melting temperature Tm,5′d(AAAAGGAGAG),55 °C
same,melting temperature Tm,5′d(GAGAGGAAAA),43.5 °C
